How the values were obtained:
hERG (IKr) = hERG (IKr) (Homo sapiens (Human), UniProt Q12809); assay: hERG test; format: cell-based; settings: HEK293 cells expressing hERG channel, pH 7.4, HEK293 cell expressing hERG, compound concentration 5 μM, read-out: inhibitory percentage (IKr maximum tail current)
From the text: For the purpose of risk assessment for QT prolongation on an electrocardiogram, the action on delayed rectifier K+ current (IKr) which plays an important role on a process of ventricular repolarization was studied using a HEK293 cell with a human ether-a-go-go related gene (hERG) channel expressed therein. A cell was maintained at a membrane potential of −80 mV, and then +40 mV of a depolarizing stimulus was applied to the cell for 2 seconds and further −50 mV of a repolarizing stimulus was applied thereto for 2 seconds by a whole-cell patch clamp technique with a fully-automatic patch clamp system (PatchXpress 7000A, Axon Instruments Inc.), and the induced IKr was recorded. […] The absolute value of the maximum tail current was determined from the obtained IKr with an analysis software (DataXpress ver. 1, Molecular Devices Corporation) based on a current value at a maintained membrane potential. Further, an inhibitory percentage relative to the maximum tail current before application of the test compound was calculated, and influence of the test compound on IKr was evaluated in comparison with the medium application group (0.1% dimethyl sulfoxide solution). […]

[1] = system: Neuroblastoma SH-SY5Y cells (SH/APPwt) with human wild-type β-APP excessively expressed; assay: Measurement of β-amyloid (Aβ) production inhibitory effect in cell; format: cell-based; settings: 24 hours incubation, Amyloid-β 1-40 HTRF
Description: Neuroblastoma SH-SY5Y cells (SH/APPwt) with human wild-type β-APP excessively expressed therein were prepared at 8×10^5 cells/mL, and 150 μl portions thereof were inoculated into respective wells of a 96-well culture plate (Falcon). The cells were cultured for 2 hours at 37° C. in a 5% gaseous carbon dioxide incubator. […] Namely, the final DMSO concentration was 1%, and the amount of the cell culture was 200 μl. After the incubation was performed for 24 hours from the addition of the test compound, 100 μl of the culture supernatant was collected from each fraction. The amount of the Aβ in each fraction was measured. The Aβ amount was measured as follows. 10 μl of a homogeneous time resolved fluorescence (HTRF) measurement reagent (Amyloid-β 1-40 peptide; IBA Molecular Holding, S.A.) and 10 μl of the culture supernatant were put into a 384-well half area microplate (black microplate, Costar) and mixed with each other, and then left standing overnight at 4° C. while the light was shielded. Then, the fluorescence intensity (excitation wavelength: 337 nm, measurement wavelength: 620 nm and 665 nm) was measured with a Wallac 1420 multilabel counter (Perkin Elmer life sciences).

Recombinant human BACE-1 = Recombinant human BACE-1 (Homo sapiens (Human), UniProt P56817); assay: Measurement of BACE1 inhibitory activity; format: biochemical; settings: Recombinant human BACE-1 7.4 nM, substrate peptide 18 nM, pH 5.0, 3 hours at 30° C.; read-out: IC50 (BACE1 enzyme activity)
Description: First, 48.5 μl portions of a solution of substrate peptide (Biotin-XSEVNLDAEFRHDSGC-Eu: X=ε-amino-n-capronic acid, Eu=Europium cryptate) were put into respective wells of a 96-well half area microplate (black microplate, Costar). Then, 0.5 μl of a test compound (DMSO (dimethyl sulfoxide) solution) and 1 μl of Recombinant human BACE-1 (R&D systems) were added to each of the wells, and they were reacted for 3 hours at 30° C. […] The final concentration of the substrate peptide was set to 18 nM, and the final concentration of Recombinant human BACE-1 was set to 7.4 nM. The reaction buffer used was a sodium acetate buffer (50 mM sodium acetate, pH 5.0, 0.008% Triton X-100). After the reaction finished, 50 μl portions of a 8.0 μg/ml solution of Streptavidin-XL665 (CIS bio international) in a phosphate buffer (150 mM K2HPO4—KH2PO4, pH 7.0, 0.008% Triton X-100, 0.8 M KF) were added to the respective wells, and the plate was left standing for 1 hour at 30° C. Thereafter, the fluorescence intensity (excitation wavelength: 320 nm, measurement wavelength: 620 nm and 665 nm) was measured with a Wallac 1420 multilabel counter (Perkin Elmer life sciences). The enzyme activity was determined from the count rate at each measurement wavelength (10000× Count 665/Count 620), and the amount needed to inhibit the enzyme activity by 50% (IC50) was calculated.

CYP3A4 = CYP3A4 (Homo sapiens (Human), UniProt P08684); assay: CYP3A4 fluorescent MBI test; format: in vitro ADME; settings: E. coli-expressing CYP3A4, 7-BFC substrate, pre-reaction 0 or 30 minutes
Description: The CYP3A4 fluorescent MBI test is a test to examine enhancement of CYP3A4 inhibition by metabolic reaction of the compound. Here, E. coli-expressing CYP3A4 was used as an enzyme, and a reaction wherein 7-benzyloxy trifluoromethylcumarin (7-BFC) was debenzylated by the CYP3A4 enzyme into a fluorescent metabolite 7-hydroxytrifluoromethylcumarin (HFC) was employed as an indicator reaction. The reaction conditions were as follows.
Substrate: 5.6 μmol/L 7-BFC
Pre-reaction time: 0 or 30 minutes
Reaction time: 15 minutes
Reaction temperature: 25° C. (room temperature)
CYP3A4 content (E. coli-expressing enzyme): 62.5 pmol/mL at pre-reaction, […] at reaction (10-fold diluted) […]
The enzyme and a test compound solution were added to a K-Pi buffer (pH 7.4) in the aforementioned amounts for the pre-reaction so that a pre-reaction solution was prepared, and this solution was put into a 96-well microplate. […] With respect to each of the microplates on which the indicator reaction was performed, the fluorescence value of the metabolite 7-HFC was measured with a fluorescence plate reader (Ex=420 nm, Em=535 nm). […] The remaining activity (%) at each concentration after adding the test compound solution was calculated, and the IC50 value was calculated from the concentration and inhibition percentage by inverse estimation with the logistic model. […]

Chain of CYP3A4 (P08684 whole entry): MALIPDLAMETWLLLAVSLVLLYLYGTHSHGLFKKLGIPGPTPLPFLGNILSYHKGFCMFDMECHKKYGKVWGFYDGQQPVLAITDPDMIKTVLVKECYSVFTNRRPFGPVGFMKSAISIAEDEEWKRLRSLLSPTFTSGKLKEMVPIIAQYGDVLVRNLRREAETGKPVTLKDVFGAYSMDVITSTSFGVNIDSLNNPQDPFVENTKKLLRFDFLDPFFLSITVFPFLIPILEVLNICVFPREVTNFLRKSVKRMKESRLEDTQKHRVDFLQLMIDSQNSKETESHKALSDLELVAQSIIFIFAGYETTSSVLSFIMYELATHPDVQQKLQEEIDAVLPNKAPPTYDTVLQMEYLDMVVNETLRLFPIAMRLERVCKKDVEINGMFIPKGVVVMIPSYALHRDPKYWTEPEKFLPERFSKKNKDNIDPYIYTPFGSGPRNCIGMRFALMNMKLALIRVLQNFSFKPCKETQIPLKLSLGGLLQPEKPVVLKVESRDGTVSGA
Chain of Recombinant human BACE-1 (P56817 46-501): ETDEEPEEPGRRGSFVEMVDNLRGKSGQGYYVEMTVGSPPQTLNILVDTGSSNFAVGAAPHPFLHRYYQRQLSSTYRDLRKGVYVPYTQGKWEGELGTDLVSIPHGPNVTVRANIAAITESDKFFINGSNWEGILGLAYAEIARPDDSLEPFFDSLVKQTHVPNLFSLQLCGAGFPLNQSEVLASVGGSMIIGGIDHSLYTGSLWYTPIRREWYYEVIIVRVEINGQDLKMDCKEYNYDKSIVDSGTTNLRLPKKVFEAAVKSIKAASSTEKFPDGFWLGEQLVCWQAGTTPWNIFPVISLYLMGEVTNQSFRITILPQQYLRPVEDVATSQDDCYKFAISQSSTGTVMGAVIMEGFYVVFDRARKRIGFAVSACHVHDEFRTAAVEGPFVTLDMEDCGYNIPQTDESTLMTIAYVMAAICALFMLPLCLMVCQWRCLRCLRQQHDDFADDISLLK
Chain of hERG (IKr) (Q12809 whole entry): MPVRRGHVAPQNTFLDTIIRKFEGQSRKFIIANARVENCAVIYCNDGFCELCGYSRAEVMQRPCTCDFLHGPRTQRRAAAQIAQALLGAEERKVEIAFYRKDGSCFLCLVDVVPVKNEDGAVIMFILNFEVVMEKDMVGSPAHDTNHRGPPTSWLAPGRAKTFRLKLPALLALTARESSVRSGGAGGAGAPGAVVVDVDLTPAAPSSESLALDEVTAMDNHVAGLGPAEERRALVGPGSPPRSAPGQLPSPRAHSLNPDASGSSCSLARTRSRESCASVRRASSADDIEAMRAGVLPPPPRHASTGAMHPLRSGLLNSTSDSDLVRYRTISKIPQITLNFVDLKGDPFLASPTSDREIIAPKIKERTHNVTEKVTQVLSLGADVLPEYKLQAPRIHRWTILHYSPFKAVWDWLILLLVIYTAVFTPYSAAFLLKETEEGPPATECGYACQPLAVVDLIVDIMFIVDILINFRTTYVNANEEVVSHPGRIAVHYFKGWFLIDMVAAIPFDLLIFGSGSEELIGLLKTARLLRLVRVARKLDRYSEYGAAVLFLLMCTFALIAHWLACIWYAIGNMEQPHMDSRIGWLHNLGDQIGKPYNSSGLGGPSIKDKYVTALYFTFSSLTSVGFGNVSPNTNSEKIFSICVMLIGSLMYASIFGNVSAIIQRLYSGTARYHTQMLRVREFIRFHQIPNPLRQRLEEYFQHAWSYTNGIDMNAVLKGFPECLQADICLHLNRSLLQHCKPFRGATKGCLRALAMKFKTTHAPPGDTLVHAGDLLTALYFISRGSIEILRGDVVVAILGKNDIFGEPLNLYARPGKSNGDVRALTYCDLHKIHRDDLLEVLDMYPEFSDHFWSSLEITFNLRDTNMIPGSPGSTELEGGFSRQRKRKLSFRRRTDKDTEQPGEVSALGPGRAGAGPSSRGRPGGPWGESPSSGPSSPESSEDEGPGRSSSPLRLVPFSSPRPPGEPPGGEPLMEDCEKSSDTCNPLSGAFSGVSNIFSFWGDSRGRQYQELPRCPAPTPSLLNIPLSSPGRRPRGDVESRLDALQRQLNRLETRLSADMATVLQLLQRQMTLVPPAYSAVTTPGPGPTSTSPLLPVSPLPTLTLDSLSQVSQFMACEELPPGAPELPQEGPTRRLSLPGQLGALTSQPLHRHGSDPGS

COCCOc1cnc(C(=O)Nc2cccc(C3(C)CC(=O)N(C)C(N)=N3)c2)cn1 (stereo not shown) [Compound 40]
inhibition at 10 min, 5 µM (hERG (IKr)): 4.1% | IC50 [1]: 0.9 nM | IC50 (Recombinant human BACE-1): 14 nM | IC50 difference without vs with pre-reaction (CYP3A4): ≤ 3000 nM
